Values joined by “and” are separate entries in the source; they are usually repeats but may differ in a detail not shown here. Identical values can stand only once. Like-named read-outs stand apart in the source and are kept apart here.
How the values were obtained:
JAK-STAT = JAK-STAT signalling assay (OSM-triggered pSTAT1(2)-luciferase reporter in HeLa cells); format: cell-based, human
Procedure: HeLa cells were maintained in Dulbecco's Modified Eagle's Medium (DMEM) containing 10% heat inactivated fetal calf serum, 100 U/mL penicillin and 100 μg/mL streptomycin. HeLa cells were used at 70% confluence for transfection. 20,000 cells in 87 μL cell culture medium were transiently transfected with 40 ng pSTAT1(2)-luciferase reporter (Panomics), 8 ng of LacZ reporter as internal control reporter and 52 ng of pBSK using 0.32 μL Jet-PEI (Polyplus) as transfection reagent per well in 96-well plate format. After overnight incubation at 37° C., 5% CO2, transfection medium was removed. 81 μL of DMEM+1.5% heat inactivated fetal calf serum was added. 9 μL compound at 10× concentration was added for 60 min and then 10 μL of human OSM (Peprotech) at 33 ng/mL final concentration.
The compound was tested in duplicate starting from 20 μM followed by a 1/3 serial dilution, 8 doses in total (20 μM-6.6 μM-2.2 μM-740 nM-250 nM-82 nM-27 nM-9 nM) in a final concentration of 0.2% DMSO.
After overnight incubation at 37° C., 5% CO2 cells were lysed by adding 100 μL lysis buffer/well (PBS, 0.9 mM CaCl2, 0.5 mM MgCl2, 10% Trehalose, 0.05% Tergitol NP9, 0.3% BSA).
40 μL of cell lysate was used to read β-galactosidase activity by adding 180 μL 11-Gal solution (30 μL ONPG 4 mg/mL+150 μL β-Galactosidase buffer (0.06 M Na2HPO4, 0.04 M NaH2PO4, 1 mM MgCl2)) for 20 min. The reaction was stopped by addition of 50 μL Na2CO3 1 M. Absorbance was read at 405 nm.
Luciferase activity was measured using 40 μL cell lysate plus 40 μL of Steadylite® as described by the manufacturer (Perkin Elmer), on the Envision (Perkin Elmer).
Omitting OSM was used as a positive control (100% inhibition). As negative control […] (0% inhibition) was used. The positive and negative controls were used to calculate z′ and ‘percent inhibition’ (PIN) values.
Percentage inhibition=((fluorescence determined in the presence of vehicle−fluorescence determined for sample with test compound present) divided by (fluorescence determined in the presence of vehicle−fluorescence determined for sample without trigger))*100.
PIN values were plotted for compounds tested in dose-response and EC50 values were derived.

[1] = molecular target: T1, Recombinant human JAK1 catalytic domain (Homo sapiens, UniProt P23458); assay: JAK1 assay polyGT substrate; format: biochemical
T1 construct: amino acids 866-1154; catalog number PV4774; purchased Invitrogen PV4774
Procedure: Recombinant human JAK1 catalytic domain (amino acids 866-1154; catalog number PV4774) was purchased from Invitrogen. 25 ng of JAK1 was incubated with 6.25 μg polyGT substrate (Sigma catalog number P0275) in kinase reaction buffer (15 mM Hepes pH7.5, 0.01% Tween20, 10 mM MgCl2, 2 μM non-radioactive ATP, 0.25 μCi ^33P-gamma-ATP (Perkin Elmer, catalog number NEG602K001MC) final concentrations) with or without 5 μL containing test compound or vehicle (DMSO, 1% final concentration), in a total volume of 25 μL, in a polypropylene 96-well plate (Greiner, V-bottom). After 75 min at 30° C., reactions were stopped by adding 25 μL/well of 150 mM phosphoric acid. […] 40 μL/well of Microscint-20 was added, the top of the plates was sealed and readout was performed using the Topcount (Perkin Elmer). Kinase activity was calculated by subtracting counts per min (cpm) obtained in the presence of a positive control inhibitor (10 μM staurosporine) from cpm obtained in the presence of vehicle. The ability of a test compound to inhibit this activity was determined as:
Percentage inhibition−((cpm determined for sample with test compound present−cpm determined for sample with positive control inhibitor) divided by (cpm determined in the presence of vehicle−cpm determined for sample with positive control inhibitor))*100. […]

[2] = individual determinations, read-out: IC50

T1 sequence (P23458 866-1154): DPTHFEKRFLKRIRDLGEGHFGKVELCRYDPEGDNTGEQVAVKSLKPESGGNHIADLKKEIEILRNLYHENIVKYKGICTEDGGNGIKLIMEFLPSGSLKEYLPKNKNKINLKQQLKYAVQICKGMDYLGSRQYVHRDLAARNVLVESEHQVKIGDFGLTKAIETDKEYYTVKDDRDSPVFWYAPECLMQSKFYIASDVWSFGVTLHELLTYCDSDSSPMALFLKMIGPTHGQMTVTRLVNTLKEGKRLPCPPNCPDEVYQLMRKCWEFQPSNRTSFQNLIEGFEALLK

Nc1nc2cccc(-c3ccc(CN4CCS(=O)(=O)CC4)cc3)n2n1 [Formula I, 5-[4-(1,1-Dioxothiomorpholin-4-ylmethyl)-phenyl]-[1,2,4]triazolo[1,5-a]pyridin-2-ylamine]
IC50 (JAK-STAT; Homo sapiens, HeLa, average, read-out: IC50 (average)): > 7430 nM
IC50 (JAK-STAT; Homo sapiens, HeLa, individual determinations, read-out: IC50): > 6670 nM
IC50 (JAK-STAT; individual determinations): Non active
IC50 (JAK-STAT; [2]): > 6670 nM and 8940 nM
IC50 ([1]; average, read-out: IC50 (average)): 546 nM
IC50 [1, 2]: 460 nM and 586 nM and 494 nM and 758 nM and 433 nM

— patent publication US20160296529A1, “AMINOTRIAZOLOPYRIDINE FOR USE IN THE TREATMENT OF INFLAMMATION, AND PHARMACEUTICAL COMPOSITIONS THEREOF” (priority 2012, published 2016)
